Assay results reported in PubChem BioAssay (NCI).
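Grown in 96-well plates, cells were treated for 48 hours with each compound at five concentrations. Insufficient inhibition: endpoint recorded as highest concentration tested. At the GI50, growth is halved. TGI is the concentration that stops growth completely.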

Columns and labels:
Experiment in all cases: DTP human tumour cell line panel, 48 h
LOX IMVI melanoma = test system: LOX IMVI melanoma
COLO 205 colon = test system: COLO 205 colon
RXF 393 renal = test system: RXF 393 renal
SK-MEL-2 melanoma = test system: SK-MEL-2 melanoma
CCRF-CEM leukemia = test system: CCRF-CEM leukemia
SNB-19 CNS = test system: SNB-19 CNS
SW-620 colon = test system: SW-620 colon
NCI-H522 lung = test system: NCI-H522 lung
PC-3 prostate = test system: PC-3 prostate
SR leukemia = test system: SR leukemia

Row | SMILES | GI50 (LOX IMVI melanoma) [µM] | TGI (LOX IMVI melanoma) [µM] | GI50 (COLO 205 colon) [µM] | TGI (COLO 205 colon) [µM] | GI50 (RXF 393 renal) [µM] | TGI (RXF 393 renal) [µM] | GI50 (SK-MEL-2 melanoma) [µM] | TGI (SK-MEL-2 melanoma) [µM] | GI50 (CCRF-CEM leukemia) [µM] | TGI (CCRF-CEM leukemia) [µM] | GI50 (SNB-19 CNS) [µM] | TGI (SNB-19 CNS) [µM] | GI50 (SW-620 colon) [µM] | TGI (SW-620 colon) [µM] | GI50 (NCI-H522 lung) [µM] | TGI (NCI-H522 lung) [µM] | GI50 (PC-3 prostate) [µM] | TGI (PC-3 prostate) [µM] | TGI (SR leukemia) [µM] | GI50 (SR leukemia) [µM]
1 | N/C(=N/S(=O)(=O)c1cc(C(=O)Nc2ccc(F)cc2)c(Cl)cc1SCc1ccccc1)Nc1ccccc1O | 1.76 | 3.41 | 4.1 | > 100 | 1.93 | 3.94 | 2.13 | 4.02 | 1.81 | 3.79 | 4.29 | > 100 | 1.88 | 3.54 | 3.88 | 12.5 | 2.08 | 4.61 | – | –
2 | N#CC(C#N)=C1CCC2C(=C(C#N)C#N)CCC12 (centres undefined) | – | > 100 | – | > 100 | – | > 100 | – | – | – | > 100 | – | > 100 | – | > 100 | – | > 100 | – | – | > 100 | –
3 | FC(F)(F)c1nc(Br)[nH]c1C(F)(F)F | – | > 100 | – | > 100 | – | > 100 | – | > 100 | – | > 100 | – | > 100 | – | > 100 | – | – | – | – | > 100 | –
4 | CC(=O)[CH-]C(=O)c1ccccc1.CC(=O)[CH-]C(=O)c1ccccc1.CC(=O)[CH-]C(=O)c1ccccc1.[Br-].[Zr+4] | 89.7 | > 100 | > 100 | > 100 | > 100 | > 100 | 38.5 | > 100 | 22.3 | > 100 | – | – | > 100 | > 100 | 93.2 | > 100 | – | – | – | –
5 | Nc1cc(N)c2nc(-c3ccccc3)c(NCc3ccc(Cl)c(Cl)c3)nc2c1 | – | – | 16.9 | 33.6 | 3.06 | 16.8 | 1.91 | 4.26 | 0.133 | 1.83 | 22.5 | 50.8 | 3.26 | 9.88 | 2.05 | 4.91 | 1.75 | 5.16 | 5.97 | 1.63
6 | CC(C)(C)OC1=C(OC(C)(C)C)C(O)(c2ccc(Cl)cc2)C1=O (centres undefined) | – | > 100 | – | > 100 | – | > 100 | – | – | – | > 100 | – | > 100 | – | > 100 | – | – | – | – | > 100 | –
7 | C=C1C(C(=O)O)C1C(=O)O (centres undefined) | – | > 100 | – | – | – | > 100 | – | > 100 | – | > 100 | – | > 100 | – | > 100 | – | > 100 | – | – | > 100 | –
8 | CCOC(=O)c1ccc(NC(=O)c2cccc(NC3=C(Cl)C(=O)N(Cc4ccccc4)C3=O)c2)cc1 | 60.3 | > 100 | > 100 | > 100 | > 100 | > 100 | > 100 | > 100 | 15.7 | 65.9 | > 100 | > 100 | > 100 | > 100 | 62.9 | > 100 | > 100 | > 100 | – | –
9 | c1ccc(/C(=N\Nc2nc3ccccc3s2)c2ccccn2)cc1 | – | 42.4 | – | 16.9 | – | 23.3 | – | > 61.8 | – | 1.07 | – | > 100 | – | > 100 | – | 36.7 | – | > 53.2 | – | –
10 | CC(=O)O[C@H]1CC[C@]2(C)C3C(=O)C[C@]4(C)[C@@H](C(C)CCC(=O)O)CC[C@@]4(C)[C@@H]3CC[C@H]2C1(C)C (some centres undefined) | 7.64 | 20.7 | 20.9 | > 50 | 15.5 | > 50 | 45.8 | > 50 | – | – | 21 | > 50 | 19.4 | > 50 | > 50 | > 50 | 18.3 | > 50 | > 50 | 16.6
11 | CSc1cc(C(C)(C)C)ccc1C(O)c1ccc(C(C)(C)C)cc1SC | – | 24.3 | – | 23 | – | 24.9 | – | 34.1 | – | 35.8 | – | 34.3 | – | 23.9 | – | 21.9 | – | – | 32.2 | –
12 | CCOC(=O)c1cc2c(n1Cc1ccccc1OC)-c1oncc1CCC2 | 7.64 | > 100 | 0.878 | 3.97 | – | – | – | – | 2.87 | > 100 | 64.7 | > 100 | 2.02 | > 100 | 0.351 | 2.88 | 2.48 | > 100 | > 100 | 0.438
13 | CCOC(=O)CCSC1=CC(=O)c2nc3ccccc3c3ccnc1c23 | 27 | > 100 | 24.9 | > 100 | – | – | 26.8 | 72.8 | 3.44 | > 100 | 20.5 | 51.6 | 13.9 | 41.6 | 17.4 | 43 | 13.5 | 38.7 | > 100 | 7.59
14 | CCc1ccccc1NC(=O)C(=O)C(C#N)c1c(Cl)cccc1Cl (centres undefined) | – | > 100 | – | – | – | – | – | > 100 | – | > 100 | – | > 100 | – | > 100 | – | > 100 | – | – | > 100 | –
15 | Nc1ncnc2c1ncn2CCCCC(=O)O | – | > 100 | – | > 100 | – | > 100 | – | > 100 | – | – | – | > 100 | – | > 100 | – | > 100 | – | > 100 | > 100 | –
16 | O=C(Nc1ccc(Cl)cc1)N1CCN(c2ccc3nncn3n2)CC1 | 92.4 | > 100 | 51.6 | > 100 | > 100 | > 100 | 65.4 | > 100 | – | – | > 100 | > 100 | 60.8 | > 100 | – | – | 34.3 | > 100 | > 100 | 24.5
17 | O=c1[nH]c2ccccc2n1C1CCN(CCOc2ccccc2)CC1 | 15.5 | > 100 | 14.5 | 45.8 | 45 | > 100 | 32.8 | > 100 | – | – | 47.8 | > 100 | 50.1 | > 100 | 56.9 | > 100 | 10.7 | > 100 | > 100 | 44
